Assay [1] has as its system cell surface CD74 on Raji or Daudi cells. In words: MKN1 (bioCLIP) effect on cell surface CD74 level (flow cytometry). It counts as cell-based, human. Particulars: 24 and 48 hours. On the procedure: (§1) The ability of MKN1 (bioCLIP) to alter cell surface CLIP and CD74 levels was determined using Raji or Daudi cells.
(§2) Data were analyzed by histogram with Y axis represents cell number of the 5000 live cells versus the X axis which is a reflection of relative FITC fluorescence with either antibodies to CLIP or CD74. The distance between the histogram from the isotype control staining versus the histogram reflecting the specific stain and is a measure of level of cell surface CLIP or CD74 when staining a population of live Raji or Daudi cells.
(§3) Cell Culture Conditions: The Raji and Daudi cell lines were purchased from American Type Culture Collection, were thawed, and grown in RPMI 1640 medium supplemented with standard supplements, including 10% fetal calf serum, gentamycin, penicillin, streptomycin, sodium pyruvate, HEPES buffer, 1-glutamine, and 2-ME.
(§4) Protocol: Cells were plated into a 12-well plate with 3 mls total volume containing approximately 0.5×10^6/mL for Daudi cells and 0.5×10^6/mL for Raji cells. […]
(§5) Harvested cells were stained using standard staining procedure that called for a 1:100 dilution of Fitc-anti-human CLIP or CD74 antibody (FITC, Pharmingen, Cat # 554647) or isotype control. […] Samples were acquired and analyzed on a Coulter Excel Flow Cytometer.
(In general: A flow cytometer gives signals particle by particle.)

The subject of assay [2] is cell surface CLIP on Raji or Daudi cells. In words: MKN1 (bioCLIP) effect on cell surface CLIP level (flow cytometry). The following applies: 24 and 48 hours. It counts as cell-based, human. On the procedure: as §1, §2, §3, §4, §5
For assay [3], the system named is cell surface CD1d on Raji and Daudi cells. In words: Cell surface expression of CD1d after competing peptide (flow cytometry, anti-CD1d). In kind it is cell-based, human. The following applies: 50 μM, both cell lines. The protocol:
(§6) The ability of synthetic peptides to compete with binding of CLIP peptides and result in the cell surface expression of CD1d was determined.
(§7) Results: The results shown in FIG. 5 are expressed in histogram analyses. The Y axis represents cell number of the 5000 live cells versus the X axis which is a reflection of relative Fitc fluorescence versus Streptavidin-PE (eBioscience, Cat. #12-4317) that will bind with high affinity to cell-bound biotinylated peptides. The distance between the histogram from the isotype control staining versus the histogram reflecting the specific stain and is a measure of level of cell surface CD1d.
as §3
Protocol: Cells were plated into a 12 well plate with 3 mls total volume containing approximately 1.5×10^6/well for Daudi cells and 3.0×10^6/well for Raji cells. Treatment groups included no treatment as control and biotinylated […] […]
Harvested cells were stained using standard staining procedure that called for a 1:100 dilution of PE anti-CD1d. […] Samples were acquired and analyzed on a Coulter Excel Flow Cytometer.

Assay [4] concerns human B-cell lines, Raji and Daudi. In words: Binding of biotinylated synthetic peptide to B-cell lines (Streptavidin-PE flow cytometry). It counts as cell-based. Particulars: 50 μM. On the procedure:
as §6, §7, §3
Protocol: Cells were plated into a 12 well plate with 3 mls total volume containing approximately 1.5×10^6/well for Daudi cells and 3.0×10^6/well for Raji cells. Treatment groups included no treatment as control and biotinylated […] (SEQ ID NO. 1) (also referred to as MKN 5) at 50 μM final concentration based on the reported molarity of the synthesized compounds. […]

No end group written: not given here. *: point of attachment. Biotin = O=C1N[C@H]2[C@H](CS[C@H]2CCCCC(=O)*)N1

cell surface CLIP on Raji or Daudi cells, sequence (P04233 97-120): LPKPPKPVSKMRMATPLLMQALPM

For “SGG GSK MRM ATP LLM QAL Y (Biotin-SGGGSKMRMATPLLMQALY) [MKN1 (bioCLIP)]”, the “cell surface CD74 level” value in assay [1] was “alters cell surface CLIP and CD74 levels”. Also, the “cell surface CLIP level” value in assay [2] was “alters cell surface CLIP and CD74 levels”.
With FRIMAVLAS (also: biotin), the “cell surface expression of CD1d” value is “marginally” in assay [3] (4 hours) and “slightly more” in assay [3] (24 hours). The “binding of biotinylated peptide to B-cell lines” value in assay [4] (4 hours) is on record as “bound with high affinity”; in assay [4] (24 hours), “Less binding”.

Values taken from patent publication US20090175838A1, “METHODS OF MODULATING IMMUNE FUNCTION” (priority 2007, published 2009).
